In PMC8316002, “Inhibition of Escherichia coli Lipoprotein Diacylglyceryl Transferase Is Insensitive to Resistance Caused by Deletion of Braun’s Lipoprotein” (Journal of Bacteriology, 2021):
In brackets after ≈: the same amount, converted by molar mass.

Tests used:
CFT073 Δlgt [1] = assay: MIC assay, CFT073 Δlgt, Lgt 0.25% Ara; assay type: cell-based, E. coli; conditions: Escherichia coli
Description: (§1) Unless stated otherwise, E. coli cells were grown in Luria-Bertani (LB) medium (0.5% yeast extract, 1% tryptone, 0.5% NaCl) at 37°C. Where indicated, kanamycin (Kan) was added to culture media at a 50-μg/ml final concentration. MIC assays were performed based on Clinical and Laboratory Standards Institute (CLSI) guidelines. For in vitro growth curves, overnight cultures of WT CFT073, CFT073 Δlgt, and CFT073 Δlgt complemented with lgt from E. coli (lgt^Ec) or P. aeruginosa (lgt^Pa) were grown to mid-exponential phase (optical density at 600 nm [OD600] of 0.6) and then diluted to an OD600 of 0.1 to initiate growth curves. At various times, culture aliquots were diluted and plated in dilutions on LB+Kan agar, and CFU were enumerated in duplicates. Growth of MG1655 inducible deletion strains was measured by culturing in the presence of 2-fold dilutions of arabinose (starting arabinose concentrations for CFT073 and MG1655 inducible deletion strains were 4% and 0.8%, respectively). While […] was sufficient for WT growth of MG1655 Δlgt, 4% arabinose was used for CFT073 Δlgt based on comparing its growth to that of WT CFT073 as measured by CFU. OD600 growth measurements were performed using an EnVision 2101 multilabel reader plate reader (PerkinElmer) linked with Echo liquid handler (Labcyte). For time-kill experiments, bacteria were harvested in mid-exponential phase and treated with 12.5 μM G2824, 3.2 μM globomycin, and 1.6 μM vancomycin. CFU were enumerated at various times posttreatment. Bacterial culture medium containing 2% arabinose was used to induce lpp or lppΔK expression from pBad24 plasmids. Bacterial viability at different time points during the treatment was measured by enumerating CFU. Serum killing assays were carried out as previously described ([17]).

CFT073 Δlgt [2] = assay: MIC assay, CFT073 Δlgt, Lgt 4% Ara; assay type: cell-based, E. coli; conditions: Escherichia coli
Description: as §1

SMILES: CN[C@H](CC(C)C)C(=O)N[C@H]1C(=O)N[C@@H](CC(N)=O)C(=O)N[C@H]2C(=O)N[C@H]3C(=O)N[C@H](C(=O)N[C@H](C(=O)O)c4cc(O)cc(O)c4-c4cc3ccc4O)[C@H](O)c3ccc(c(Cl)c3)Oc3cc2cc(c3O[C@@H]2O[C@H](CO)[C@@H](O)[C@H](O)[C@H]2O[C@H]2C[C@](C)(N)[C@H](O)[C@H](C)O2)Oc2ccc(cc2Cl)[C@H]1O [Vancomycin]
- MIC (CFT073 Δlgt [1]): 12.5 µM (≈ 18.1 µg/mL)
- MIC (CFT073 Δlgt [2]): > 100 µM
